Measurements: patent US11596615B2, “Compositions and methods for treatment of insulin resistance” (Temple University—Of The Commonwealth System Of Higher …, priority 2016, dated 2023)
Entries after “also recorded” stand apart in the source; their conditions may differ. Counter-ions that a name gives are not always drawn.

How the values were obtained:
[1] = Liver microsome stability, rat; assay type: in vitro ADME, Rat (pooled Sprague Dawley; male); details: male, Sprague Dawley; rat liver microsomes, 1 μM compound, 0.5 mg/ml microsomal protein, 37° C., 2 mM NADPH
Experimental: The stability of the title compound in the presence of liver microsomes was tested at 1 μM compound and 0.5 mg/ml rat or human microsomal protein, at 37° C. with 2 mM NADPH (standard in vitro screening concentrations). […] The “t1/2” values are the maximum time employed for the respective assays.

[2] = Intravenous and oral pharmacokinetic study in mice; assay type: in vivo; details: for VSS: dihydrochloride
Experimental: A pharmacokinetic study was conducted with mice (Charles river) (N=3). The animals had free access to water and standard laboratory chow under a controlled 12 hour light-dark cycle. After at least one week of an acclimation period, the mice were administrated a dose of 5 mg/kg of the title compound ((S))-2-amino-6-((3-aminopropyl)amino)hexanoic acid dihydrochloride) intravenously or 10 mg/kg orally. For both intravenous and oral administration, the compound was dissolved in saline. After intravenous administration, blood samples were collected at 10 min, 30 min, 1, 2, 4, 8 and 24 hours. For oral gavage, blood samples were collected at 15 min, 30 min 1, 2, 4, 8 and 24 hours. The blood samples were collected in polythene tubes with heparin sodium 100 unit/mL and centrifuged at 6000×g for 10 min to obtain plasma, which was stored at −20° C. until analysis.
The title compound concentration in mouse plasma was quantitated using an LC/MS/MS (API 4000, AB SCIEX). Briefly, 50 μl mouse plasma was added to 100 μl acetonitrile with internal standard (Diltiazem 10 ng/ml). The mixture was vortexed and centrifuged, and 5 μl supernatant was injected into LC/MS/MS for analysis. The separation was performed on a Waters C18 column (2.1×50 mm, […] particle size). The mobile phase consisted of 0.2% pentafluoropropionic acid in water:acetonitrile by gradient elution. A Sciex API 4000 mass spectroscopy system equipped with an electrospray source in the positive-ion multiple reaction monitoring (MRM) mode was used for detection. The MRM transitions monitored for the title compound and diltiazem were m/z 204.4/84.2 and m/z 415/178, respectively. The retention time is 12.5 min for (S)-2-amino-6-((3-aminopropyl)amino)hexanoic acid and 14 min for diltiazem. The quantitation ranged from 25 to 1000 ng/ml.

[3] = Predicted concentration-time profile for oral dosing in drinking water; details: 10 mg/kg/day in drinking water, modeled as six oral doses over 12 hrs, plasma
Experimental: The maximum predicted concentration is 0.82 μg/mL and the minimum concentration 0.1 μg/mL. The dose can be adjusted proportionally to achieve the desired concentrations.

[4] = Adduct formation with 4-HNE by mass spectroscopy; details: equimolar 10 μM APL and 4-HNE, 1 hr incubation at 37° C.; FIG. 6A, 6B; dihydrochloride
Experimental: The experimental design was to incubate equimolar amounts (10 μM) of APL (dihydrochloride) with 4-HNE and measure adduct formation by mass spectroscopy before and after 1 hr incubation at 37° C.

[5] = system: mice fed high fat diet (HFD); test: Fasting glucose and glucose tolerance test in HFD mice (Example 11); assay type: in vivo, C57BL/6J mice; details: two weeks
Experimental: Thirty-two C57BL/6J mice 8-weeks old were selected and randomly separated. The mice (n=8) were fed ad libitum for two weeks with either CHOW diet or high fat diet (HFD, 60% of fat content). Each group was divided in half 8 animals received regular water and the other 8 received (S)-2-amino-6-((3-aminopropyl)amino)hexanoic acid dihydrochloride dissolved in water so as to administer about 10 mg/kg of the drug body weight per mouse, per day. As an additional experimental control (n=8), a group of mice receiving HFD also received pioglitazone (10 mg/kg). Poglitazone is a well-known anti-diabetic agent. It has the ability to increase glucose uptake into the cells. […] At the end of the two weeks, animals were fasted for 5 hours, weighed, and their tails were clipped to measure fasting blood glucose levels. Immediately after, glucose was administered intraperitoneally (1 mg/g of body weight). Glucose levels were measured at 20, 40, 80 and 140 minutes after glucose administration in a glucose time test (GTT). Animals were euthanized under anesthesia (isoflurane). Blood, liver, fat and muscle tissues were collected and flash frozen for the studies. […]

[6] = system: 3T3-L1 adipocytes; test: Restoring glucose uptake in insulin-stimulated 3T3-L1 cells exposed to 4-HNE and H2O2 (FIG. 13); assay type: cell-based, mouse; details: 10 μM pretreatment 12 hours, then 4HNE and H2O2 4 hours
Experimental: Insulin-stimulated 3T3-L1 adipocytes were pretreated with the drug (S)-2-amino-6-((3-aminopropyl)amino)hexanoic acid dihydrochloride (10 μM) for 12 hours followed by exposure to 4HNE and H2O2 for an additional 4 hours. The amounts of glucose taken up by the 3T3-L1 adipocytes were measured by the MRM methods described above. The results in FIG. 13 show the effect of the drug in restoring glucose uptake in insulin-stimulated 3T3-L1 cells exposed to 4-HNE and H2O2: Control cells, no insulin (C− No Ins); control cells, with insulin (C+ Ins); 4HNE+H2O2-treated cells (4HNE/H2O2) and cells treated with drug+4HNE+H2O2 (“APL”).
Insulin-stimulated 3T3-L1 adipocytes were pretreated with the drug (S)-2-amino-5-((6-aminohexyl)amino)pentanoic acid dihydrochloride (10 μM) for 12 hours followed by exposure to 4HNE and H2O2 for an additional 4 hours. The amounts of glucose taken up by the 3T3-L1 adipocytes were measured by the MRM methods described above. FIG. 13 includes the results: cells treated with (S)-2-amino-5-((6-aminohexyl)amino)pentanoic acid trihydrochloride (MC-180351).
Insulin-stimulated 3T3-L1 adipocytes were pretreated with the drug (S)-2-amino-5-(([…])amino)pentanoic acid dihydrochloride (10 μM) for 12 hours followed by exposure to 4HNE and H2O2 for an additional 4 hours. The amounts of glucose taken up by the 3T3-L1 adipocytes were measured by the MRM methods described above. FIG. 13 includes the results: cells treated with (S)-2-amino-5-((5-aminopentyl)amino)pentanoic acid trihydrochloride (MC-180352).

NCCCNCCCC[C@H](N)C(=O)O [APL, (S)-2-amino-6-((3-aminopropyl)amino)hexanoic acid dihydrochloride]
half-life at 1 μM [1]: > 1 h | microsomal CLint at 1 μM [1]: < 23 µL/min/mg | VSS ([2]; IV, 5 mg/kg): 0.4 L/kg | AUCtot ([2]; IV, 5 mg/kg, plasma): 4.72 μg*hr/m | CL ([2]; PO, 10 mg/kg): 0.285 L/h | VSS ([2]; PO, 10 mg/kg, listed as (S)-2-amino-6-((3-aminopropyl)amino)hexanoic acid dihydrochloride): 2.12 L/kg | VSS ([2]; PO, 10 mg/kg, listed as (S)-2-amino-6-((3-aminopropyl)amino)hexanoic acid): 2.1 L/kg | AUCtot ([2]; PO, 10 mg/kg, plasma): 10.45 μg*hr/m | Cmax ([2]; mouse, IV, 5 mg/kg, plasma): 8360 ng/mL | Cmax ([2]; mouse, PO, 10 mg/kg, plasma): 1440 ng/mL | clearance ([2]; mouse, plasma, IV, 5 mg/kg): 5.17 mL/min | half-life ([2]; mouse, plasma, IV, 5 mg/kg): 2.53 h | Tmax ([2]; mouse, plasma, PO, 10 mg/kg): 3.33 h | half-life ([2]; mouse, plasma, PO, 10 mg/kg): 3.25 h | Vd ([2]; mouse, plasma, iv, 5 mg/kg, IV, 5 mg/kg, read-out: VSS): 0.414 L/kg | bioavailability ([2]; mouse, plasma, oral, 10 mg/kg, PO 10 mg/kg vs IV 5 mg/kg): ~100% | maximum predicted concentration [3]: 0.82 µg/mL | minimum predicted concentration [3]: 0.1 µg/mL | adduct formation with 4-HNE [4]: forms an adduct with 4-HNE after 1 hr of incubation; also recorded: forms an adduct with 4-NHE | glucose tolerance test ([5]; 10 mg/kg, glucose 1 mg/g i.p., FIG. 8C): drastically improved | fasting glucose levels ([5]; about 10 mg/kg per day, 5 hours fasted, FIG. 8B): reduced fasting glucose levels | GLUT4 carbonylations [6]: reduce GLUT4 carbonylations | glucose uptake impairment induced by 4-HNE and H2O2 ([6]; FIG. 13): prevent glucose uptake impairment induced by 4-HNE and H2O2
